This is an account of results in patent US12187758B2 (ROME Therapeutics, Inc., priority 2022, dated 2025).

Format in all cases: cell-based
The test system of one assay is THP1-Dual KO-TREX1 cells. Briefly: THP1 TREX1 KO inhibition assay (type 1 interferon response). The conditions noted are these: Homo sapiens, 144 h, type 1 interferon (QUANTI-LUC), 1 μM 5-aza-2′-deoxycytidine, six days. In a few lines: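 THP1-Dual KO-TREX1 cells were treated with a dose titration of compound, alone or with 1 μM 5-aza-2′-deoxycytidine, for six days at 37 °C. Type 1 interferon was read as secreted luciferase (QUANTI-LUC) in the supernatant, and viability by CellTiter-Glo luminescence.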

A further assay relates to PC3 cells. In words: Mitochondria toxicity assay with PC3 cells, cytotoxicity (Cell Titer Glo). The conditions noted are these: Homo sapiens, PC-3, 120 h, 5 days treatment. An outline of the steps:
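Cytotoxicity reported in μM bins, A <1.0 through E >100.0. Measured via Cell Titer Glo luminescence (30 min, room temperature) after 5-day dose-titration treatment of PC3 cells, grown in F-12K/10% FBS, at 37° C, 5% CO2.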

Assay [1] relates to SDH-A (succinate dehydrogenase-A). Briefly: Mitochondria toxicity assay with PC3 cells, in-cell ELISA SDH-A. The settings on record: 5 days treatment. An outline of the steps: (§1)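 This in-cell ELISA was run on fixed, permeabilized PC3 cells after 5-day exposure to titrated compound, with cytotoxicity measured on a duplicate plate. Results are reported as categories A (<1.0 μM) to E (>100.0 μM).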

Assay [2] is described as follows: Mitochondria toxicity assay with PC3 cells, in-cell ELISA COX-1. The settings on record: 5 days treatment. An outline of the steps: as §1

Structures are written as SMILES.

For the molecule `Nc1nc(=O)n([C@H]2C[C@H](O)[C@](CO)(C3CC3)O2)cc1F` [Compound 120, 4-amino-1-[(2R,4S,5R)-5-cyclopropyl-4-hydroxy-5-(hydroxymethyl)oxolan-2-yl]-5-fluoropyrimidin-2-one], the IC50 with THP1-Dual KO-TREX1 cells is above 1 µM; with PC3 cells, above 100 µM; in assay [1], above 100 µM; in assay [2], above 100 µM.
Consider `Nc1ccn([C@@H]2O[C@@](CO)(C3CC3)[C@@H](O)[C@@H]2F)c(=O)n1` [Compound 121, 4-amino-1-[(2R,3S,4R,5R)-5-cyclopropyl-3-fluoro-4-hydroxy-5-(hydroxymethyl)oxolan-2-yl] pyrimidin-2-one], for which the IC50 is above 1 µM in the assay on THP1-Dual KO-TREX1 cells, above 100 µM with PC3 cells, above 100 µM in assay [1] and above 100 µM in assay [2].
As for `C=C[C@]1(CO)O[C@@H](n2ccc(N)nc2=O)[C@@H](F)[C@@H]1O` [Compound 47, 4-amino-1-((2R,3S,4R,5R)-3-fluoro-4-hydroxy-5-(hydroxymethyl)-5-vinyltetrahydrofuran-2-yl)pyrimidin-2(1H)-one], the IC50 is above 1 µM in the assay with THP1-Dual KO-TREX1 cells, 1 to 10 µM in the assay on PC3 cells, 1 to 10 µM in assay [1] and 1 to 10 µM in assay [2].
Take `Nc1nc2c(ncn2[C@@H]2O[C@@](CO)(CCl)[C@@H](O)[C@@H]2F)c(=O)[nH]1` [Compound 70, 2-amino-9-((2R,3S,4R,5R)-5-(chloromethyl)-3-fluoro-4-hydroxy-5-(hydroxymethyl)-tetrahydrofuran-2-yl)-1,9-dihydro-6H-purin-6-one]: the half-inhibitory concentration (IC50) was above 1 µM in the assay on THP1-Dual KO-TREX1 cells, 10 to 50 µM with PC3 cells, 10 to 50 µM in assay [1] and 10 to 50 µM in assay [2].
For the molecule `CCCC1(CO)O[C@@H](n2ccc(N)nc2=O)C[C@@H]1O` (stereo partly drawn) [Compound 57, 4-amino-1-((2R,4S,5R)-4-hydroxy-5-(hydroxymethyl)-5-propyltetrahydrofuran-2-yl)pyrimidin-2(1H)-one], the IC50 is above 1 µM in the assay with THP1-Dual KO-TREX1 cells, above 100 µM in the assay with PC3 cells, above 100 µM in assay [1] and above 100 µM in assay [2].
As for `C=C=C[C@]1(CO)O[C@@H](n2cnc3c(N)nc(F)nc32)C[C@@H]1O` [Compound 164, (2R,3S,5R)-5-(6-amino-2-fluoropurin-9-yl)-2-(hydroxymethyl)-2-(propa-1,2-dien-1-yl) oxolan-3-ol], the IC50 with THP1-Dual KO-TREX1 cells was above 1 µM; in the assay with PC3 cells it was above 100 µM; in assay [1], above 100 µM; in assay [2], above 100 µM.
Take `Nc1ccn([C@H]2C[C@H](O)[C@](CO)(C(F)F)O2)c(=O)n1` [Compound 110, 4-amino-1-((2R,4S,5R)-5-(difluoromethyl)-4-hydroxy-5-(hydroxymethyl)-tetrahydrofuran-2-yl)pyrimidin-2(1H)-one]: the concentration for half-maximal inhibition (IC50) is above 1 µM in the assay with THP1-Dual KO-TREX1 cells, above 100 µM in the assay with PC3 cells, above 100 µM in assay [1] and above 100 µM in assay [2].
In the case of `C#C[C@]1(CO)O[C@@H](n2ccc(N)nc2=O)[C@@H](F)[C@@H]1O` [Compound 35, 4-amino-1-((2R,3S,4R,5R)-5-ethynyl-3-fluoro-4-hydroxy-5-(hydroxymethyl)tetrahydrofuran-2-yl)pyrimidin-2(1H)-one], the 50% inhibitory concentration (IC50) in the assay with THP1-Dual KO-TREX1 cells is 0.25 to 1 µM; with PC3 cells, below 1 µM; in assay [1] it was above 100 µM; in assay [2], below 1 µM.
On to `Cc1cn([C@@H]2O[C@@](CO)(N=[N+]=[N-])[C@@H](O)[C@@H]2F)c(=O)[nH]c1=O` [Compound 178, 1-((2R,3S,4R,5R)-5-azido-3-fluoro-4-hydroxy-5-(hydroxymethyl)tetrahydrofuran-2-yl)-5-methylpyrimidine-2,4(1H,3H)-dione], for which the concentration for half-maximal inhibition (IC50) in the assay on THP1-Dual KO-TREX1 cells is above 1 µM; in the assay with PC3 cells, above 100 µM; in assay [1], above 100 µM; in assay [2] it was 10 to 50 µM.
In the case of `Nc1ccn([C@H]2C[C@H](O)[C@](CO)(CF)O2)c(=O)n1` [Compound 45, 4-amino-1-((2R,4S,5R)-5-(fluoromethyl)-4-hydroxy-5-(hydroxymethyl)tetrahydro-furan-2-yl)pyrimidin-2(1H)-one], the IC50 is above 1 µM in the assay on THP1-Dual KO-TREX1 cells, 1 to 10 µM in the assay with PC3 cells, below 1 µM in assay [1] and below 1 µM in assay [2].
On to `Nc1nc(=O)n([C@H]2C[C@H](O)[C@](CO)(C(F)(F)F)O2)cc1F` [Compound 66, 4-amino-5-fluoro-1-((2R,4S,5R)-4-hydroxy-5-(hydroxymethyl)-5-(trifluoromethyl)tetrahydrofuran-2-yl)pyrimidin-2(1H)-one], for which the half-maximal inhibitory concentration (IC50) in the assay on THP1-Dual KO-TREX1 cells was above 1 µM; in the assay with PC3 cells, above 100 µM; in assay [1], above 100 µM; in assay [2], above 100 µM.
